Laboratory results from PubChem BioAssay (NCI).
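All cell lines were grown in 96-well plates and treated with compound for 48 hours. TGI marks complete inhibition of growth.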 Where a SMILES comes first, the peptide text is derived from it. The star is where a group is joined. Boc = CC(C)(C)OC(=O)*

What was measured:
Experiment in all cases: inhibition of tumour cell growth, NCI panel, 48 h
[1] = tested on: OVCAR-4 ovarian
[2] = tested on: HCT-116 colon
[3] = tested on: TK-10 renal
[4] = tested on: OVCAR-8 ovarian
[5] = tested on: SF-268 CNS
[6] = tested on: MOLT-4 leukemia
[7] = tested on: MDA-MB-435
[8] = tested on: MDA-MB-231 breast
[9] = tested on: A549 NSCLC
[10] = tested on: RXF 393 renal

Question: With COC(=O)C(Cc1c[nH]c2ccccc12)NC(=O)C(Cc1c[nH]c2ccccc12)NC(=O)C(Cc1c[nH]c2ccccc12)NC(=O)C(Cc1c[nH]c2ccccc12)NC(=O)C(Cc1c[nH]c2ccccc12)NC(=O)C(Cc1c[nH]c2ccccc12)NC(=O)C(Cc1c[nH]c2ccccc12)NC(=O)C(Cc1c[nH]c2ccccc12)NC(=O)OC(C)(C)C (stereo unspecified) (Boc-WWWWWWWW-OMe; configuration not given here) as the compound, how does the TGI [1] read?
Answer: > 100 µM

Question: What about the TGI [2] of the same compound?
Answer: > 100 µM

Question: And the TGI [3]?
Answer: > 100 µM

Question: And the TGI [4]?
Answer: > 100 µM

Question: And the TGI [5]?
Answer: > 100 µM

Question: And the TGI [6]?
Answer: > 100 µM

Question: And the TGI [7]?
Answer: > 100 µM

Question: What about the TGI [8] of the same compound?
Answer: > 100 µM

Question: And the TGI [9]?
Answer: > 100 µM

Question: What does the source list for O=C1c2ccccc2C(=O)N1CC(O)COc1cccc2ccccc12 (stereo unspecified)?
Answer: TGI [2]: > 100 µM; TGI [3]: > 100 µM; TGI [4]: > 100 µM; TGI [5]: > 100 µM; TGI [6]: > 100 µM; TGI [7]: > 100 µM; TGI [8]: > 100 µM; TGI [9]: > 100 µM

Question: Which TGI [1] does the source give for N#Cc1ccc(-n2c3ccccc3c3ccc4c(c32)C(=O)C=CC4=O)cc1 here?
Answer: 13 µM

Question: What about the TGI [2] of the same compound?
Answer: 7.19 µM

Question: What about the TGI [3] of the same compound?
Answer: 8.83 µM

Question: What about the TGI [4] of the same compound?
Answer: > 58.7 µM

Question: And the TGI [5]?
Answer: 9.12 µM

Question: What about the TGI [7] of the same compound?
Answer: 4.39 µM

Question: And the TGI [10]?
Answer: 5.32 µM

Question: And the TGI [8]?
Answer: 8.25 µM

Question: What about the TGI [9] of the same compound?
Answer: 38.4 µM

Question: Which TGI [1] does the source give for COC(=O)c1c2cccccc-2c(Cc2c3cccccc-3c(C(=O)OC)c2O)c1O here?
Answer: > 100 µM

Question: And the TGI [2]?
Answer: > 100 µM

Question: What about the TGI [3] of the same compound?
Answer: > 100 µM

Question: What about the TGI [4] of the same compound?
Answer: > 100 µM

Question: What about the TGI [5] of the same compound?
Answer: > 100 µM

Question: What about the TGI [6] of the same compound?
Answer: > 100 µM

Question: What about the TGI [9] of the same compound?
Answer: > 100 µM

Question: What does the source list for COC(=O)C(CCSC)NC(=O)Cc1ccc(C(=O)c2ccccc2)cc1 (stereo unspecified)?
Answer: TGI [1]: > 100 µM; TGI [2]: > 100 µM; TGI [4]: > 100 µM; TGI [5]: > 100 µM; TGI [6]: > 100 µM; TGI [7]: 93.6 µM; TGI [10]: > 100 µM; TGI [8]: > 100 µM; TGI [9]: > 100 µM

Question: For C=C1CCC([N+](=O)[O-])[C@](C)(N=O)CC[C@@H]2C1CC2(C)C (stereo partly specified), which TGI [1] is on record?
Answer: 84.6 µM

Question: And the TGI [2]?
Answer: 32.1 µM

Question: What about the TGI [3] of the same compound?
Answer: 76.1 µM

Question: What about the TGI [4] of the same compound?
Answer: 48 µM

Question: What about the TGI [5] of the same compound?
Answer: > 100 µM

Question: And the TGI [6]?
Answer: > 100 µM

Question: What about the TGI [9] of the same compound?
Answer: 36 µM

Question: Which results are given for CC(C)(C)OC(=O)N1C(c2cccnc2)=CC[C@H]2C3CC=C(c4cccnc4)[C@@]3(C)CC[C@@H]21 (stereo partly specified)?
Answer: TGI [1]: 19.3 µM; TGI [2]: 17.5 µM; TGI [3]: 19.7 µM; TGI [4]: 25 µM; TGI [5]: 11.5 µM; TGI [6]: > 100 µM; TGI [7]: 5.7 µM; TGI [10]: 14.6 µM; TGI [9]: 12.2 µM

Question: Which results are given for CC(=O)O[C@H]1C(=O)[C@@]2(C)C(C(OC(=O)c3ccccc3)C3[C@@H](O)C(OC(=O)[C@@H](O)[C@H](NC(=O)c4ccccc4)c4ccc(C(F)(F)F)cc4)C(C)=C1C3(C)C)[C@]1(OC(C)=O)CO[C@@H]1C[C@@H]2O (stereo partly specified)?
Answer: TGI [2]: > 25 µM; TGI [3]: > 25 µM; TGI [4]: > 25 µM; TGI [5]: > 25 µM; TGI [6]: > 25 µM; TGI [10]: > 25 µM; TGI [9]: > 25 µM

Question: Which results are given for CCC(C#N)NCc1cccc(CNC(C#N)CC)c1 (stereo unspecified)?
Answer: TGI [1]: > 100 µM; TGI [2]: > 100 µM; TGI [3]: > 100 µM; TGI [4]: > 100 µM; TGI [5]: > 100 µM; TGI [6]: > 100 µM; TGI [7]: > 100 µM; TGI [8]: > 100 µM; TGI [9]: > 100 µM

Question: With Cn1c2ccccc2c(=O)c2cccc(C(=O)NC(CCC(N)=O)C(=O)O)c21 (stereo unspecified) as the compound, how does the TGI [1] read?
Answer: > 100 µM

Question: What about the TGI [2] of the same compound?
Answer: > 100 µM

Question: What about the TGI [3] of the same compound?
Answer: > 100 µM

Question: And the TGI [4]?
Answer: > 100 µM

Question: What about the TGI [5] of the same compound?
Answer: > 100 µM

Question: And the TGI [6]?
Answer: > 100 µM

Question: And the TGI [7]?
Answer: > 100 µM

Question: What about the TGI [8] of the same compound?
Answer: > 100 µM

Question: And the TGI [9]?
Answer: > 100 µM

Question: CCCC(=O)OC1C(CO)OC(n2cc(F)c(=O)[nH]c2=O)C1F (stereo unspecified) was tested. Which TGI [1] did it give?
Answer: > 100 µM

Question: What about the TGI [2] of the same compound?
Answer: > 100 µM

Question: What about the TGI [3] of the same compound?
Answer: > 100 µM

Question: What about the TGI [4] of the same compound?
Answer: > 100 µM

Question: What about the TGI [6] of the same compound?
Answer: > 100 µM

Question: What about the TGI [7] of the same compound?
Answer: > 100 µM

Question: And the TGI [10]?
Answer: > 100 µM

Question: And the TGI [9]?
Answer: > 100 µM
